One data set concerns the target T1, PfDHODH (Plasmodium falciparum, UniProt Q08210).
T1 sequence (Q08210 24-569): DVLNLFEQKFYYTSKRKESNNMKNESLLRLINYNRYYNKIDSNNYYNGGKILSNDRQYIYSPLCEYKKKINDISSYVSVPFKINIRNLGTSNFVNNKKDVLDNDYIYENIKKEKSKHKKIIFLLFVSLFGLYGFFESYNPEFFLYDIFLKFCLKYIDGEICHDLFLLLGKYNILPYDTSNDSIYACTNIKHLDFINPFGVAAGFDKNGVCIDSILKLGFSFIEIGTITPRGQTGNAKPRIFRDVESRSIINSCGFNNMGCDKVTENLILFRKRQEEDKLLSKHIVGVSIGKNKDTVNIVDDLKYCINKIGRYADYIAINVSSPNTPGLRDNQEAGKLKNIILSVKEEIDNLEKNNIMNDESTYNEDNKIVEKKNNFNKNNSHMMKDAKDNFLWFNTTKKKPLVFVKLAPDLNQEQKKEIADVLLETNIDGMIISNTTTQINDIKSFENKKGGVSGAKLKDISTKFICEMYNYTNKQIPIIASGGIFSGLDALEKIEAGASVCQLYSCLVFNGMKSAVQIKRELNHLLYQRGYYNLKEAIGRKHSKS
The data set is described as follows: DHODH inhibition, Plasmodium falciparum. It is filed as biochemical.

Data set [1] relates to B16-F10 mouse melanoma tumor cells. The data set is described as follows: B16-F10 syngeneic mouse melanoma model. It is filed as in vivo. Particulars: athymic mice, 35 mg/kg IP 3 × weekly (M, W, F) for two weeks.
Data set [2] in a line: Dose-finding study in athymic mice. The settings on record: 35 mg/kg three times weekly for 4 weeks.

This note sets out measurements from article PMC3397428 (Bioorganic & medicinal chemistry, 2012).

SMILES strings stand for the structures. “Also recorded” adds a separate entry of the source.

As usually defined, the IC50 is the point on the concentration scale where inhibition reaches its midpoint. A low value points to greater potency in that assay.

`Nc1nc2c(c(Nc3cccc(Br)c3)n1)-c1ccccc1C2` [Compound 8, N^4-(3-Bromophenyl)-9H-indeno[2,1-d]pyrimidine-2,4-diamine] gave an IC50 against PfDHODH not below 200 µM. The compound `Nc1nc2c(c(Nc3cccc(F)c3)n1)-c1ccccc1C2` [Compound 4, N^4-(3-Fluorophenyl)-9H-indeno[2,1-d]pyrimidine-2,4-diamine] came in with an IC50 against PfDHODH not below 200 µM. For the compound `Nc1nc2c(c(Nc3ccccc3)n1)-c1ccccc1C2` [Compound 1, N^4-Phenyl-9H-indeno[2,1-d]pyrimidine-2,4-diamine], the IC50 against PfDHODH was not below 200 µM. `Nc1nc2c(c(Nc3ccc(Cl)cc3)n1)-c1ccccc1C2` [Compound 7, N^4-(4-Chlorophenyl)-9H-indeno[2,1-d]pyrimidine-2,4-diamine]: in data set [1], the “growth rate of primary B16-F10 tumor” value is “equipotent with the standard 21; also recorded: decreased tumor growth rate”. Further, in data set [2], the “loss in weight in dose-finding study” value is listed as “no significant loss in weight” and the “toxicity in dose-finding study” value was “no apparent toxicity”. Also, on PfDHODH, the half-inhibitory concentration (IC50) was not below 200 µM. Consider `COc1cccc(Nc2nc(N)nc3c2-c2ccccc2C3)c1` [Compound 11, N^4-(3-Methoxyphenyl)-9H-indeno[2,1-d]pyrimidine-2,4-diamine], for which the IC50 against PfDHODH was not below 200 µM. Same read-out and setting: the result for `Nc1nc2c(c(Nc3ccc(Cl)cc3F)n1)-c1ccccc1C2` [Compound 13, N^4-(4-Chloro-2-fluorophenyl)-9H-indeno[2,1-d]pyrimidine-2,4-diamine] reads not below 200 µM.
